The target of the test is T1, hNaV1.7 (Homo sapiens, UniProt Q15858).
T1 construct: expressed in transfected cells; host or cells: HEK293
Kind of test: QPatch NaV1.7 assay (whole-cell patch clamp, QPatch16x). The format is cell-based. The conditions noted are these: HEK293-hNaV1.7 cells. The method, then: The compounds of the invention were tested in a QPatch NaV1.7 assay.
HEK293-hNaV1.7 cells were grown in DMEM-F12+10% FBS culture media at 37° C. At a confluency of 50-70% cells were dissociated from culture flasks & triturated to ensure unicellular cell suspension; cell density was measured & adjusted to 2-3×10^6 cells/ml. Recordings were obtained using QPatch16x. The external solution was (in mM): NaCl, 128; KCl, 5; MgCl2, 2; CaCl2, 2; Glucose, 30; HEPES, 15; pH 7.3, 305-315 mOsm. Following seal formation and whole-cell access using internal solution (containing in mM: CsF, 135; EGTA/CsOH, 1/5; HEPES 10; NaCl, 10; pH 7.3, 310-320 mOsM), voltage pulse protocols were applied. Initially a steady state inactivation voltage protocol was used to determine the half-maximal voltage for steady state inactivation (V1/2 SSI). Two holding voltages were used to determine test drug inhibition: −90 mV, where most of the channels are in a closed state; and V1/2 SSI, where half of the channels are inactivated. Currents were elicited […] by stepping to a membrane potential of 0 mV for 20 ms. Four-point cumulative concentration responses were derived by determining the peak current amplitude at each concentration of test drug over 120 second application. Curves were fitted with the Hill equation yielding pIC50 values at −90 mV and V1/2 SSI holding potentials.

[1] abbreviates: holding voltage V1/2 SSI (half of channels inactivated), read-out: QP Nav1.7 SSI vhalf pIC50 (converted).
Setting [2] is: holding voltage −90 mV (most channels closed), read-out: QP Nav1.7 −90 mV pIC50 (converted).

Structures are written as SMILES. Counter-ions that a name gives are not always drawn. Like-named read-outs stand apart in the source and are kept apart here.

T1 sequence (Q15858 whole entry): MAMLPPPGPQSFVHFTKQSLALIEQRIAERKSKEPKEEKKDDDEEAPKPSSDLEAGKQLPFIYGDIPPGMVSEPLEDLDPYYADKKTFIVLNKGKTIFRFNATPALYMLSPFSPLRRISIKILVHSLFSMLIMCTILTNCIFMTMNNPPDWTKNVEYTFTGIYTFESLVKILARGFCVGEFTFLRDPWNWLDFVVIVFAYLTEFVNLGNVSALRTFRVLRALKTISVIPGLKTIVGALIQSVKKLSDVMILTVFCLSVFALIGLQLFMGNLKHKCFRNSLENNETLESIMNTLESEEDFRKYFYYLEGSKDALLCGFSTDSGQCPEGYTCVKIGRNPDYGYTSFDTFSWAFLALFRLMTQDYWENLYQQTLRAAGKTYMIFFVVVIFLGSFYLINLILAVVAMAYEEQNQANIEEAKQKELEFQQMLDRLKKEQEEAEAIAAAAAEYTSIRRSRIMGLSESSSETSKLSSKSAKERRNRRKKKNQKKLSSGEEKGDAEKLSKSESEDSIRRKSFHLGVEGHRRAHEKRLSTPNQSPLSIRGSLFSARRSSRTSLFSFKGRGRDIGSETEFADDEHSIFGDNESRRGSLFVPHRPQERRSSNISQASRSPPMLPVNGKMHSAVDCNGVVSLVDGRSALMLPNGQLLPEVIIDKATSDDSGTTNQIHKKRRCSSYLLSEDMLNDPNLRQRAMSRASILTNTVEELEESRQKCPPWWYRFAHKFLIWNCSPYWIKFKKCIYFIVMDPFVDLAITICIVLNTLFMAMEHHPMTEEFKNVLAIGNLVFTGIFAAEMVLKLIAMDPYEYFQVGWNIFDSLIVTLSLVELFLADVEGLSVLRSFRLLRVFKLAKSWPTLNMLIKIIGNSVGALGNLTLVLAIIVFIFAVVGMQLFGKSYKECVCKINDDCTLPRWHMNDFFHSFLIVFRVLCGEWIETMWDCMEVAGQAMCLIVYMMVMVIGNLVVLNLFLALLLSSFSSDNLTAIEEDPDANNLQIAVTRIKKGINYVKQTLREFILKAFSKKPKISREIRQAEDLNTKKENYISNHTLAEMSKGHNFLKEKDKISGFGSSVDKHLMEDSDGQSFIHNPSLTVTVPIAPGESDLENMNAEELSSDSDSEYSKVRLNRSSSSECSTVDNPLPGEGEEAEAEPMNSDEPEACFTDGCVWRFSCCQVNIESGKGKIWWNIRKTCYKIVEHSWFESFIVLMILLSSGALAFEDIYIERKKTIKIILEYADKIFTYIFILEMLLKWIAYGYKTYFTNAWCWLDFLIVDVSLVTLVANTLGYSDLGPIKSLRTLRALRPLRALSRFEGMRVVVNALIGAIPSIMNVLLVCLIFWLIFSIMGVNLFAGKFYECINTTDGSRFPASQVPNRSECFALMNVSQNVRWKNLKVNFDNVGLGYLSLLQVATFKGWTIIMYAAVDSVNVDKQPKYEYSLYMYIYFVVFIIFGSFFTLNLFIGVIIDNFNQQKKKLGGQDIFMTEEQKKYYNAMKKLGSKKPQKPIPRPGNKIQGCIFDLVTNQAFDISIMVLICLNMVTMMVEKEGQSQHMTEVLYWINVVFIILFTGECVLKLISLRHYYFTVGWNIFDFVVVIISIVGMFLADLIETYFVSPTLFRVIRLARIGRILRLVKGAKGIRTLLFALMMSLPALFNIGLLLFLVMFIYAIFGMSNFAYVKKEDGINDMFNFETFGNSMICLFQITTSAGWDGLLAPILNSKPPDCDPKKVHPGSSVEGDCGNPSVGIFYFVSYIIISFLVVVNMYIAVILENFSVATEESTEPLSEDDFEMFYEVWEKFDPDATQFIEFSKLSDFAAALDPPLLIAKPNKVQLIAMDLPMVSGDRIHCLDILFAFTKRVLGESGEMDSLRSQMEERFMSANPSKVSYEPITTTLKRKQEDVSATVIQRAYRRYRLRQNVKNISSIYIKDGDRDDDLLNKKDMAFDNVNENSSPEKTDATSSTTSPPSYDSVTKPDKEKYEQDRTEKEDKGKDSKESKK

For the compound `Cc1cc(-c2ccc(C(F)(F)F)cc2)cc([C@H]2CC[C@@]3(CCNC3=O)N2)n1` [Example 94, (2R,5S)-2-[6-Methyl-4-[4-(trifluoromethyl)phenyl]-2-pyridyl]-1,7-diazaspiro[4.4]nonan-6-one hydrochloride], the IC50 runs as follows: under setting [1], 0.2 µM; under setting [2], 3.98 µM.

On to `CN1CC[C@@]2(CC[C@H](c3cc(-c4ccc(Cl)cc4)ccn3)N2)C1=O` [Example 13, (2R,5S)-2-[4-(4-Chlorophenyl)-2-pyridyl]-7-methyl-1,7-diazaspiro[4.4]nonan-6-one hydrochloride], for which the IC50 under setting [1] was 6.31 µM and the IC50 under setting [2] was 25.1 µM.

Take `Cl.[2H]C([2H])(C)Oc1ccc(F)c(-c2ccnc([C@H]3CC[C@@]4(CCN(C)C4=O)N3)c2)c1` [Example 254, (2R,5S)-2-[4-[5-(1,1-Dideuterioethoxy)-2-fluoro-phenyl]-2-pyridyl]-7-methyl-1,7-diazaspiro[4.4]nonan-6-one hydrochloride]: the IC50 by setting is: under setting [1], 6.31 µM; under setting [2], 50.1 µM.

Turning to `CN1CC[C@@]2(CC[C@H](c3cc(-c4ccc(C(F)(F)F)cc4)c(F)cn3)N2)C1=O` [Example 58, (2R,5S)-2-[5-Fluoro-4-[4-(trifluoromethyl)phenyl]-2-pyridyl]-7-methyl-1,7-diazaspiro[4.4]nonan-6-one hydrochloride], the IC50 was 1.26 µM under setting [1] and 63.1 µM under setting [2].

`CCOc1ccc(F)c(-c2cc(C)nc([C@H]3CC[C@@]4(CCNC4=O)N3)c2)c1` [Example 104, (2R,5S)-2-[4-(5-Ethoxy-2-fluoro-phenyl)-6-methyl-2-pyridyl]-1,7-diazaspiro[4.4]nonan-6-one hydrochloride]: the IC50 was 0.158 µM under setting [1] and 1.58 µM under setting [2].

As to `CCOc1ccc(F)c(-c2cc(OC)nc([C@H]3CC[C@]4(CCN(C)C4=O)N3)c2)c1` (single isomer, unassigned) [Example 247, hydrochloride], the IC50 is, setting by setting: under setting [1], 1.26 µM; under setting [2], 20 µM.

For `CN1CC[C@@]2(CC[C@H](c3cc(-c4ccccc4F)ccn3)N2)C1=O` [Example 32, (2R,5S)-2-[4-(2-Fluoro-phenyl)-pyridin-2-yl]-7-methyl-1,7-diaza-spiro[4.4]nonan-6-one hydrochloride], the IC50 was 39.8 µM under setting [1] and 251 µM under setting [2].

Turning to `CCOc1cc(F)c(F)c(-c2ccnc([C@H]3CC[C@@]4(CCN(C)C4=O)N3)c2)c1` [Example 175, (2R,5S)-2-[4-(5-Ethoxy-2,3-difluoro-phenyl)-2-pyridyl]-7-methyl-1,7-diazaspiro[4.4]nonan-6-one hydrochloride], the IC50 is, setting by setting: under setting [1], 15.8 µM; under setting [2], 200 µM.

As for `CN1CC[C@@]2(CC[C@H](c3cc(-c4ccc5c(c4)CCO5)ccn3)N2)C1=O` [Example 166, (2R,5S)-2-[4-(2,3-Dihydrobenzofuran-5-yl)-2-pyridyl]-7-methyl-1,7-diazaspiro[4.4]nonan-6-one hydrochloride], the IC50 runs as follows: under setting [1], 126 µM; under setting [2], 2000 µM.

For the compound `CN1CCC[C@@]2(CC[C@H](c3cc(-c4ccc(C(F)(F)F)cc4)ccn3)N2)C1=O` [Example 67, (2R,5R)-7-Methyl-2-[4-(4-trifluoromethyl-phenyl)-pyridin-2-yl]-1,7-diaza-spiro[4.5]decan-6-one hydrochloride], the IC50 under setting [1] was 3.98 µM and the IC50 under setting [2] was 31.6 µM.

For the compound `CCOc1ccc(F)c(-c2cc(C)nc([C@@H]3CC[C@]4(CCN(C)C4=O)N3)c2)c1` [Example 120, (2S,5R)-2-[4-(5-Ethoxy-2-fluoro-phenyl)-6-methyl-pyridin-2-yl]-7-methyl-1,7-diaza-spiro[4.4]nonan-6-one hydrochloride], the IC50 reads like this: under setting [1], 0.794 µM; under setting [2], 20 µM.

Consider `CCOc1ccc(F)c(-c2cc([C@H]3CC[C@@]4(CCN(C)C4=O)N3)ncc2F)c1` [Example 223, (2R,5S)-2-[4-(5-Ethoxy-2-fluoro-phenyl)-5-fluoro-2-pyridyl]-7-methyl-1,7-diazaspiro[4.4]nonan-6-one hydrochloride], for which the IC50 by setting is: under setting [1], 25.1 µM; under setting [2], 158 µM.

As for `Cc1cc(-c2ccc(C(F)(F)F)cc2)cc([C@H]2CC[C@@]3(CCCNC3=O)N2)n1` [Example 99, (2R,5R)-2-[6-Methyl-4-(4-trifluoromethyl-phenyl)-pyridin-2-yl]-1,7-diaza-spiro[4.5]decan-6-one hydrochloride], the IC50 reads like this: under setting [1], 1 µM; under setting [2], 15.8 µM.

Consider `Cc1cc(-c2ccc(C(F)(F)F)cc2)cc([C@@H]2CC[C@]3(CCCNC3=O)N2)n1` [Example 98, (2S,5S)-2-[6-Methyl-4-(4-trifluoromethyl-phenyl)-pyridin-2-yl]-1,7-diaza-spiro[4.5]decan-6-one hydrochloride], for which the IC50 runs as follows: under setting [1], 0.631 µM; under setting [2], 25.1 µM.

As to `CC1(C)C[C@]2(CC[C@H](c3cc(-c4cc(O)ccc4F)ccn3)N2)C(=O)N1` [Example 220, (2R,5R)-2-[4-(2-Fluoro-5-hydroxy-phenyl)-2-pyridyl]-8,8-dimethyl-1,7-diazaspiro[4.4]nonan-6-one], the IC50 reads like this: under setting [1], 50.1 µM; under setting [2], 200 µM.

With `CN1CC[C@@]2(CC[C@H](c3cc(-c4ccccc4C(F)(F)F)ccn3)N2)C1=O` [Example 7, (2R,5S)-7-Methyl-2-[4-[2-(trifluoro-methyl)phenyl]-2-pyridyl]-1,7-diazaspiro[4.4]nonan-6-one hydrochloride], the IC50 runs as follows: under setting [1], 31.6 µM; under setting [2], 100 µM.

Consider `Cc1ccn(-c2ccc(F)c(-c3ccnc([C@H]4CC[C@@]5(CCN(C)C5=O)N4)c3)c2)n1` [Example 182, (2R,5S)-2-[4-[2-Fluoro-5-(3-methylpyrazol-1-yl)phenyl]-2-pyridyl]-7-methyl-1,7-diazaspiro[4.4]nonan-6-one hydrochloride], for which the IC50 reads like this: under setting [1], 15.8 µM; under setting [2], 100 µM.

Regarding `Cc1c(-c2ccc(F)cc2)ccnc1[C@H]1CC[C@@]2(CCN(C)C2=O)N1` [Example 19, (2R,5S)-2-[4-(4-Fluorophenyl)-3-methyl-2-pyridyl]-7-methyl-1,7-diazaspiro[4.4]nonan-6-one hydrochloride], the IC50 under setting [1] was 6.31 µM and the IC50 under setting [2] is 50.1 µM.

With `Cc1cc(-c2ccc(C(F)(F)F)cc2)cc([C@H]2CC[C@]3(CCNC3=O)N2C)n1` [Example 227, (2R,5R)-1-Methyl-2-[6-methyl-4-[4-(trifluoromethyl)phenyl]-2-pyridyl]-1,7-diazaspiro[4.4]nonan-6-one hydrochloride], the IC50 is, setting by setting: under setting [1], 12.6 µM; under setting [2], 158 µM.

For `CCOc1ccc(-c2cc(C)nc([C@@H]3CC[C@@]4(CCN(C)C4=O)N3)c2)cc1` [Example 88, (2S,5S)-2-[4-(4-Ethoxyphenyl)-6-methyl-2-pyridyl]-7-methyl-1,7-diazaspiro[4.4]nonan-6-one hydrochloride], the IC50 under setting [1] was 31.6 µM and the IC50 under setting [2] was 316 µM.

Regarding `Cc1cnn(-c2ccc(F)c(-c3ccnc([C@H]4CC[C@@]5(CCN(C)C5=O)N4)c3)c2)c1` [Example 183, (2R,5S)-2-[4-[2-Fluoro-5-(4-methylpyrazol-1-yl)phenyl]-2-pyridyl]-7-methyl-1,7-diazaspiro[4.4]nonan-6-one hydrochloride], the IC50 by setting is: under setting [1], 3.16 µM; under setting [2], 63.1 µM.

Consider `CCOc1ccc(F)cc1-c1ccnc([C@H]2CC[C@@]3(CCN(C)C3=O)N2)c1` [Example 4, (2R,5S)-2-[4-(2-Ethoxy-5-fluoro-phenyl)-pyridin-2-yl]-7-methyl-1,7-diaza-spiro[4.4]nonan-6-one hydrochloride], for which the IC50 is, setting by setting: under setting [1], 12.6 µM; under setting [2], 200 µM.

Consider `COc1ccc(Cl)c(-c2ccnc([C@H]3CC[C@@]4(CCN(C)C4=O)N3)c2)c1` [Example 83, (2R,5S)-2-[4-(2-Chloro-5-methoxy-phenyl)-2-pyridyl]-7-methyl-1,7-diazaspiro[4.4]nonan-6-one hydrochloride], for which the IC50 is, setting by setting: under setting [1], 31.6 µM; under setting [2], 200 µM.

Turning to `CCOc1ccc(F)c(-c2ccnc([C@H]3CC[C@]4(CCN(C)C4=O)N3)c2C)c1` [Example 212, (2R,5R)-2-[4-(5-Ethoxy-2-fluoro-phenyl)-3-methyl-2-pyridyl]-7-methyl-1,7-diazaspiro[4.4]nonan-6-one hydrochloride], the IC50 runs as follows: under setting [1], 5.01 µM; under setting [2], 63.1 µM.

Turning to `CN1CC[C@]2(CC[C@H](c3cc(-c4ccccc4F)ccn3)N2)C1=O` [Example 35, (2R,5R)-2-[4-(2-Fluoro-phenyl)-pyridin-2-yl]-7-methyl-1,7-diaza-spiro[4.4]nonan-6-one hydrochloride], the IC50 is 100 µM under setting [1] and 398 µM under setting [2].

Consider `CCOc1ccc(F)c(-c2ccnc([C@H]3CC[C@]4(CCCNC4=O)N3)c2)c1` [Example 107, (2R,5S)-2-[4-(5-Ethoxy-2-fluoro-phenyl)-pyridin-2-yl]-1,7-diaza-spiro[4.5]decan-6-one hydrochloride], for which the IC50 under setting [1] was 0.2 µM and the IC50 under setting [2] was 1.58 µM.

These data come from patent US9376436B2, “2-(pyridin-2yl)-1, 7-diaza-spiro [4.4] nonane-6-one compound as voltage-gated sodium channels modulators” (CONVERGENCE PHARMACEUTICALS LIMITED, priority 2011, dated 2016).
